The target of one data set is MCM ΔC (Saccharolobus islandicus, UniProt F0NF15). In words: colorimetric phosphate release ATPase assay. The format is biochemical. As to conditions: 1 mM ATP, 10 mM magnesium acetate, pH 7.9, 50 °C.
The data set “SEC” concerns the molecule itself. Nature of the data set: SEC. A general note: SEC sorts molecules by how far they enter the pores of the column.

`Nc1ncnc2c1ncn2[C@@H]1O[C@H](COP(=O)(O)OP(=O)(O)OP(=O)(O)O)[C@@H](O)[C@H]1O` [ATP]: at MCM ΔC, the “colorimetric phosphate release ATPase assay” value is recorded as “loss of the wH domain results in a marked activation of the ATPase activity”.

B1: MCM, wild-type (S. islandicus) (natural protein, UniProt F0NF15 1-686, looked up)
chain: MEIPSKQIDYRDLFIEFLTTFKNTNNQNKYIERINELIAYRKKSLIVEFSDILSFNENLAYEIINNTKIVLPILEGALYDHILQLDPTYQRDIEKVHVRIVGIPRVIELRKIRSTDIDKLITIDGILVKVTPVKERIYKATYKHIHPDCMQEFEWPEDEEMPEILEMPTICPKCGKPGQFRLIPEKTKLIDWQKAVIQERPEEVPSGQLPRQLEIILEDDLVDSARPGDRVKVTGILEIKQDSPIKRGSRAVFDIYMKVSSIEVSQKVLDEVTISEEDEKKIKDLAKDPWIRDRIIASIAPSIYGHWELKEALALALFGGVPKVLEDTRIRGDIHILIIGDPGTAKSQMLQFISRVAPRAVYTTGKGSTAAGLTAAVVREKGTGEYYLEAGALVLADGGIAVIDEIDKMRDEDRVAIHEAMEQQTVSIAKAGIVAKLNARAAVIAAGNPKFGRYITERPVSDNINLPPTILSRFDLIFILKDQPGEQDRELANYILDVHSGKSTKNIIDIDTLRKYIAYARKYIIPKITSEAKNLITDFFVEMRKKSSETPDSPILITPRQLEALIRISEAYAKMALKTEVTREDAERAINIMRLFLESVGVDMESGKIDIDTIMTGKPKSAREKMMKILEIIDSLAVSSECAKVKDILKEAQQVGIEKSNIEKLLTDMRKSGIIYEAKPECYKKV
As usually defined, the stoichiometry N is the number of molecules, sites or subunits per partner or assembly. As to B1, the “stoichiometry N” value in “SEC” was determined as 6.

(Values after article PMC4724246 (Molecular cell, 2015).)
